The structures appear in SMILES notation. Converted amounts (≈) assume the structure as drawn.

The conditions of series [1]: ref Scifinder, 2015; Chemspider; cited from earlier work.
The test system of the next series is CpomOR1. Put plainly: Single sensillum recordings, CpomOR1 expressed in Drosophila at1 OSNs. Format: cell-based, Cydia pomonella. As to conditions: 10 μg per stimulus. The text has this:
To perform heterologous expression in D. melanogaster OSNs, CpomORs were amplified using primers in Table 2 and purified PCR products were cloned into the PCR8/GW/TOPO plasmid (Invitrogen) following the recommended protocol. Cassettes with inserts were then transferred from their PCR8/GW/TOPO plasmids to the destination vector (pUASg-HA.attB, constructed by E. Furger and J. Bischof, kindly provided by the Basler group, Zürich), using the Gateway LR Clonase II kit (Invitrogen). The integrity and orientation of inserts was confirmed by sequencing (Sanger sequencer, 3730xl). Transformant UAS-CpomOR3 and UAS-CpomOR1 lines were generated by Best Gene (Chino Hills, CA, USA), using the PhiC31 integrase system, while the transformant UAS-CpomOR6a line was generated in our labs. Briefly, recombinant pUASg-HA.attB-CpomOR plasmids were injected into embryos of a D. melanogaster line containing an attP insertion site within the third chromosome (genotype y1 M{vas-int.Dm}ZH-2A w*; M{3xP3-RFP.attP}ZH-86Fb), leading to non-random integration. To drive expression of CpomORs in at1 OSNs in place of the endogenous receptor Or67d, transformant UAS-CpomOR lines were crossed to the knock-in Or67d^GAL4 line (kindly provided by Barry Dickson) to generate double homozygous lines w^+;UAS-CpomOR; Or67d^GAL4. Additionally, to drive expression of CpomOR3 in ab3A OSNs, the UAS-CpomOR3 line was crossed to the Δhalo;Or22a-Gal4 mutant line[20][57]. To verify insertion of UAS-CpomORs constructs into the genome, gDNA was extracted and used as template in PCR with primers for the full ORF of CpomORs (Table 2).
CpomOR1 and CpomOR6a expressed in at1 OSNs, and CpomOR3 expressed in ab3A OSNs, were tested through single sensillum recordings (SSR). Three to 8-day-old flies were immobilized in 100 μL pipette tips with only the top half of the head protruding. The left antenna of each insect was gently pushed with a glass capillary against a double-sided adhesive tape placed on a piece of glass. This piece of glass and the pipette tip were fixed with dental wax on a microscope slide. Electrolytically sharpened tungsten electrodes (Harvard Apparatus Ltd, Edenbridge, United Kingdom) were used to penetrate the insect´s body. The reference electrode was manually inserted in the right eye of the fly, while the recording electrode was manoeuvred with a DC-3K micromanipulator equipped with a PM-10 piezo translator (Märzhäuser Wetzler GmbH, Wetzler, Germany) and inserted at the base of the determined sensilla. Signals coming from the olfactory sensory neurons were amplified 10 times with a probe (INR-02, Syntech, Hilversum, the Netherlands), digitally converted through an IDAC-4-USB (Syntech) interface, and visualized and analysed with the software Autospike v. 3.4 (Syntech). A constant flow of 0.65 m/s of humidified air (charcoal-filtered) was delivered through a glass tube to the antenna. The panel of odorants was given to the insect by inserting pipettes containing a piece of filter paper with the correspondent stimulus in a lateral hole of the glass tube and puffing a flow of 2.5 mL of air during 0.5 s through the pipette. For CpomOR1 and CpomOR6a the panel of odorants was prepared by applying 10 μL of a solution of 1.0 μg/μL of the compounds in Supplementary Dataset S2 and Supplementary Dataset S3, for a total amount of 10 μg per stimulus. In the case of CpomOR3, a similar dilution process was used for the dose response experiments of ethyl-(E,Z)-2,4-decadienoate and methyl-(E,Z)-2,4-decadienoate, as well for dose response of experiments of codlemone acetate in CpomOR6a. Compounds were diluted from concentrations ranging from 0.01 ng/μL to 10 μg/μL in decadic steps, allowing reaching concentrations from 100 pg to 100 μg per stimulus when 10 μL of the dilution was applied in the piece of filter paper. […]

Regarding `CCC(C)CO` (centres unmarked) [2-methyl-1-butanol], the log partition coefficient (LogP) in series [1] is 1.192±0.187. As to `CCCc1ccc(O)c(OC)c1` [dihydro eugenol, 2-methoxy-4-propylphenol], in series [1], the LogP was 2.943±0.224 and the “Solubility (M)” value is recorded as 6,00E-03 M.

With `C=CCc1ccc(OC)c(OC)c1` [methyl eugenol], in series [1], the LogP is recorded as 2.655±0.243.

`CC(C)=CCC/C(C)=C/CO` [geraniol]: the LogP in series [1] is reported as 2.942±0.271. On to `O=CCc1ccccc1` [phenyl acetaldehyde], for which, in series [1], the LogP was 1.760±0.224 and the “Solubility (M)” value is recorded as 0,016 M. Take `CC(C)CCC(=O)c1ccoc1` [3-(4-methyl-1-oxopentyl)furan-]: in series [1], the LogP was 2.851 ± 0.318 and the “Solubility” value is 2.1 mM (≈ 349 µg/mL). `NCCc1ccccc1` [phenylethylamine]: in series [1], the LogP is 1.435±0.189 and the “Solubility (M)” value was 0,085 M.

Regarding `COC(=O)c1ccccc1` [methyl benzoate], the “Solubility (M)” value in series [1] is recorded as 0,02 M. `C/C1=C\CC/C(C)=C/CC(C)(C)/C=C/C1` [α-humulene]: in series [1], the LogP is listed as 6.592±0.249 and the “Solubility (M)” value was 1,10E-08 M.

On to `CCCCC(=O)OC` [methyl valerate], for which the lipophilicity (LogP) in series [1] was 1.804±0.205.

As for `CCCCCCCOC(=O)CCC` [heptyl butyrate], the LogP in series [1] is listed as 4.352±0.206. For `CC(=O)CCC=C(C)C` [6-methyl-5-hepten-2-one], in series [1], the LogP is 1.947±0.238 and the “Solubility” value was 52 mM (≈ 6560 µg/mL). Take `CCCCCO` [1-pentanol]: in series [1], the LogP is recorded as 1.348±0.176 and the “Solubility (M)” value was 0,24 M.

In the case of `C=C(C)C1CC=C(C=O)CC1` (centres unmarked) [1,8-p-menthadien-7-al (perillaldehyde), 1,8-p-menthadien-7-al], in series [1], the LogP is 3.053 ± 0.335 and the “Solubility” value was 6.1 mM (≈ 916 µg/mL).

With `C=C(C)[C@@H]1CCC2=CC(=O)C[C@@H](C)[C@]2(C)C1` [(+)-nootkatone], in series [1], the LogP was 3.765±0.275 and the “Solubility (M)” value is 2,40E-04 M. On to `CCC/C=C/C=O` [(E)-2-hexenal], for which, in series [1], the LogP is listed as 1.790±0.281 and the “Solubility (M)” value was 0,09 M. Take `O=Cc1ccccc1` [benzaldehyde]: in series [1], the LogP is given as 1.452±0.242 and the “Solubility (M)” value is 0,02 M.

Take `CCC/C=C/C=O` [trans-2-hexenal]: the LogP in series [1] is 1.790±0.281. Turning to `CC(C=O)Cc1ccc2c(c1)OCO2` (centres unmarked) [helional], the LogP in series [1] is reported as 1.982±0.343.

Turning to `COCc1ccccc1` [benzyl methyl ether], in series [1], the LogP was 1.843±0.239 and the “Solubility (M)” value is recorded as 0,05 M. For `CC(C)(C)c1ccc(CCC=O)cc1` [bourgeonal], in series [1], the LogP is given as 3.486±0.245 and the “Solubility (M)” value is 4,50E-04 M. Consider `COc1cc(C=O)ccc1O` [vanillin], for which, in series [1], the “Solubility (M)” value is 0,024 M.

`C/C=C/c1ccc2c(c1)OCO2` [isosafrol]: in series [1], the log partition coefficient (LogP) is recorded as 3.904±0.349 and the “Solubility (M)” value is reported as 5,90E-04 M.

For the compound `C/C=C/c1ccc(OC)c(OC)c1` [methyl-iso-eugenol], in series [1], the LogP is listed as 3.049±0.239 and the “Solubility” value is 3.6 mM (≈ 642 µg/mL). For `CC/C=C\CCO` [(Z)-3-hexenol], in series [1], the “Solubility” value was 140 mM (≈ 14000 µg/mL). `CC(=O)OCC=C(C)C` [prenyl acetate]: in series [1], the LogP is recorded as 2.017±0.274 and the “Solubility (M)” value is listed as 0,069 M.

In the case of `CCCCCCCCO` [1-octanol], the LogP in series [1] is recorded as 2.876±0.177. With `C=CCc1ccc(O)c(OC)c1` [eugenol], the LogP in series [1] was 2.403±0.236. In the case of `O=Cc1ccc2c(c1)OCO2` [heliotropin], the LogP in series [1] is listed as 1.050±0.302. With `O=C1CCCCC1` [cyclohexanone], in series [1], the LogP is listed as 0.821±0.251 and the “Solubility” value was 150 mM (≈ 14700 µg/mL). Regarding `CC(C)CCO` [3-methyl-1-butanol], in series [1], the LogP is on record as 1.192±0.187 and the “Solubility (M)” value is 0,34 M.

Turning to `CC(C)c1ccc(O)cc1` [4-isopropyl phenol], in series [1], the LogP was 2.986±0.200 and the “Solubility (M)” value is 0,015 M. Turning to `C=CCc1ccc(OC)cc1` [4-Allylanisole], in series [1], the log partition coefficient (LogP) was 3.088±0.223. For `CCC/C=C/CCCCCCCO` [(E8)-12:OH], the Spikes/s is -2 Spikes/s in the series with CpomOR1 (replicate 1); 4 Spikes/s with CpomOR1 (replicate 2); 0 Spikes/s with CpomOR1 (replicate 3); 0 Spikes/s with CpomOR1 (replicate 4); 2 Spikes/s in the series with CpomOR1 (replicate 5). As to `CCCCCCCCCCCCO` [1-dodecanol], the Spikes/s with CpomOR1 (replicate 1) is recorded as -2 Spikes/s; with CpomOR1 (replicate 2), 4 Spikes/s; in the series with CpomOR1 (replicate 3), 2 Spikes/s; with CpomOR1 (replicate 4), -2 Spikes/s; with CpomOR1 (replicate 5), 2 Spikes/s.

A word on the LogP: it is the decadic logarithm of the partition coefficient of the neutral form, usually between octanol and water. For orientation: Solubility means how much of the substance goes into solution per volume.

Source of the values: paper PMC5259778, “Candidate pheromone receptors of codling moth Cydia pomonella respond to pheromones and kairomones” (Scientific Reports, 2017).
